Measured values: PubChem BioAssay (NCI)
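Protocol summary: plate cells (96-well), add compound at 5 concentrations, incubate 48 h, interpolate endpoints linearly. TGI marks complete inhibition of growth.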

Assays:
Assay in all cases: NCI tumour cell line growth inhibition, 48 h
LXFL 529 NSCLC = system: LXFL 529 NSCLC
DMS 273 small cell lung = system: DMS 273 small cell lung
KM20L2 colon = system: KM20L2 colon
XF 498 CNS = system: XF 498 CNS
HOP-18 NSCLC = system: HOP-18 NSCLC
M19-MEL melanoma = system: M19-MEL melanoma
P388 leukemia = system: P388 leukemia
SN12K1 renal = system: SN12K1 renal
P388/ADR leukemia = system: P388/ADR leukemia
RXF-631 renal = system: RXF-631 renal

| SMILES | TGI (LXFL 529 NSCLC) [µM] | TGI (DMS 273 small cell lung) [µM] | TGI (KM20L2 colon) [µM] | TGI (XF 498 CNS) [µM] | TGI (HOP-18 NSCLC) [µM] | TGI (M19-MEL melanoma) [µM] | TGI (P388 leukemia) [µM] | TGI (SN12K1 renal) [µM] | TGI (P388/ADR leukemia) [µM] | TGI (RXF-631 renal) [µM] |
| --- | --- | --- | --- | --- | --- | --- | --- | --- | --- | --- |
| CCCO/N=[N+](\[O-])N(CC)CC | > 100 | > 100 | > 100 | > 100 |  |  |  |  |  |  |
| c1c(N2CCOCC2)ssc1=[N+]1CCOCC1 | > 100 | > 100 | > 100 |  | > 100 |  |  |  |  |  |
| CC(=O)OC1CC2(O)C(CCC3(C)C(c4ccc(=O)oc4)CCC32O)C2(C)C1=CC(O)C1OC12 (configuration not stated) |  | 0.135 | 0.533 | 0.201 | 0.385 | 0.245 | 154 | 0.139 | 250 |  |
| COc1ccc(OC)c(NC(=O)C(=O)C(C(=O)c2ccccc2F)C2OC(=O)c3ccccc32)c1 (configuration not stated) | > 100 | > 100 | > 100 | > 100 |  | > 100 |  |  |  | > 100 |
